Converted amounts (≈) assume the structure as drawn.
Columns and labels:
S. aureus ATCC 43300 = assay: MIC/MBC broth microdilution, S. aureus; assay type: cell-based, Staphylococcus aureus; conditions: S. aureus
S. cohnii c.i. = assay: MIC/MBC broth microdilution, S. cohnii; assay type: cell-based, Staphylococcus cohnii
Description: (§1) S. aureus (ATCC 29213),S. pyogenes (ATCC 19615),Streptococcus agalactiae (ATCC 27956),Escherichia coli (ATCC 25922),Proteus vulgaris (ATCC 6896),K. pneumoniae (ATCC 700603) andP. aeruginosa (ATCC 10145) reference strains, as well asStaphylococcus cohnii, Enterococcus faecalis, Staphylococcus schleiferi, Staphylococcus intermedius and Streptococcus mutans clinical isolates, were used to test the antibacterial activity of the peptidomimetics. Bacteria were aerobically cultured for 18 h at 37 °C in plates with sterilized brain heart infusion (BHI) broth (Sigma-Aldrich, USA) media mixed with bacteriological agar (Sigma-Aldrich, USA) using the streak plate method. After 18 h, BHI broth was inoculated to 0.5 on the McFarland scale and diluted to approximately 10^5 CFU/mL. To achieve a final stock concentration of 1024 μg/mL, the peptidomimetics were dissolved in sterile water, and 5–10% of absolute ethanol or dimethyl sulfoxide (DMSO) was added. The antibacterial activities were determined by using the standard broth microdilution method of the National Committee for Clinical Laboratory Standards. The process involved adding serially diluted peptidomimetics to consecutive wells of a 96-well microtiter plate (Brand, Germany) holding media with microorganisms. The inoculated plates treated with peptides were then placed in an incubator at 37 °C for 18 h. The MIC value was determined as the lowest concentration of peptidomimetic at which there was no obvious growth (equal or more than 90% of the untreated sample). […] The lowest concentration yielding growth in no more than 3 colonies, corresponding to at least a 99.9% kill rate, was taken as MBC. Each biological replicate included control wells with the addition of water, DMSO, and ethanol as respective solvent controls. All experiments were conducted with consistent adherence to growth and sterility controls and were performed at least in technical triplicate with three biological repeats.

[1] = test system: immortalized human keratinocytes (HaCaT); assay: LDH cytotoxicity test, keratinocytes; assay type: cell-based; conditions: 48 h
Description: (§2) In our study, we used two distinct cell types: immortalized human HaCaT keratinocytes (DKFZ, Heidelberg, Germany) and a human dermal fibroblast cell line (46BR.1N). […] Cultures were maintained in a humidified atmosphere with 5% CO2 at 37 °C in 25 cm^2 culture flasks with the medium replenished every 2 days. The condition of the cells was monitored using optical microscopy.
(§3) Cell death in immortalized human keratinocytes (HaCaT) and fibroblasts (46BR.1N) was measured by quantifying the lactate dehydrogenase (LDH) activity using a commercial kit (Roche, Switzerland). Cells were seeded in 96-well plates at a density of 5000 cells per well in DMEM high glucose medium supplemented with 10% FBS. After 24 h of incubation, the medium was replaced with serum-free medium containing various concentrations of peptidomimetics (50, 100, and 150 μg/mL). After 48 h, supernatants were collected for LDH analysis. Plate readings were taken spectrophotometrically using a 450 nm wavelength. Cell death measurements were normalized to an untreated control (0%), with 1% Triton X-100 detergent used as a positive control to induce maximum LDH release, indicating maximal cytotoxicity. Statistical significance was determined with a Mann–Whitney U test with a statistical significance p ≤ 0.05. Analysis was performed with Statistica software (Krakow, Poland) and graphs were prepared in GraphPad Prism (Boston, USA).

[2] = test system: human dermal fibroblast cell line (46BR.1N); assay: XTT cell proliferation assay, fibroblasts; assay type: cell-based; conditions: XTT, 48 and 72 h, 0.01–150 μg/mL
Description: (§4) In our study, we used two distinct cell types: immortalized human HaCaT keratinocytes (DKFZ, Heidelberg, Germany) and a human dermal fibroblast cell line (46BR.1N). […] Cultures were maintained in a humidified atmosphere with 5% CO2 at 37 °C in 25 cm^2 culture flasks with the medium replenished every 2 days. The condition of the cells was monitored using optical microscopy. […] After 24 h of incubation, the medium was replaced with serum-free HG-DMEM containing appropriate concentrations of peptidomimetics. All solutions used in the experiments were prepared with double-distilled water or with the addition of ethanol under sterile conditions to ensure compatibility with the conditions of the bacteriological assay. For 72 h of incubation, half of the medium was replaced with fresh medium after 48 h, and cells were stimulated with peptides for a second time. The XTT cell proliferation assay was then performed according to the manufacturer’s instructions (Roche, Switzerland). Cells were treated with the peptides for either 48 or 72 h, followed by the addition of XTT reagent, and the plates were then incubated at 37 °C in a 5% CO2 environment for 4 h. Plate readings were taken using a standard plate reader at a wavelength of 490 nm (OD = 490 nm). […] Statistical significance was determined with a Mann–Whitney U test with statistical significance p ≤ 0.05. Analysis was performed with Statistica software, and graphs were prepared in GraphPad Prism.

P. vulgaris ATCC 6896 = assay: MIC/MBC broth microdilution, P. vulgaris; assay type: cell-based, Proteus vulgaris
Description: as §1

[3] = test system: immortalized human HaCaT keratinocytes; assay: XTT cell proliferation assay, keratinocytes; assay type: cell-based; conditions: XTT, 48 and 72 h, 0.01–150 μg/mL
Description: as §4

[4] = test system: K. pneumoniae ATCC 700603; assay: MIC/MBC broth microdilution, K. pneumoniae; assay type: cell-based
Description: as §1

S. schleiferi c.i. = assay: MIC/MBC broth microdilution, S. schleiferi; assay type: cell-based, Staphylococcus schleiferi
Description: as §1

P. aeruginosa ATCC 10145 = assay: MIC/MBC broth microdilution, P. aeruginosa; assay type: cell-based
Description: as §1

fibroblasts (46BR.1N) = assay: LDH cytotoxicity test, fibroblasts; assay type: cell-based; conditions: 48 h
Description: as §2, §3

E. faecalis c.i. = assay: MIC/MBC broth microdilution, E. faecalis; assay type: cell-based, Enterococcus faecalis
Description: as §1

S. mutans c.i. = assay: MIC/MBC broth microdilution, S. mutans; assay type: cell-based, Streptococcus mutans
Description: as §1

S. pyogenes ATCC 19615 = assay: MIC/MBC broth microdilution, S. pyogenes; assay type: cell-based, Streptococcus pyogenes; conditions: S. pyogenes
Description: as §1

S. agalactiae ATCC 27956 = assay: MIC/MBC broth microdilution, S. agalactiae; assay type: cell-based, Streptococcus agalactiae; conditions: S. agalactiae
Description: as §1

[5] = Hydrophobicity by reverse-phase chromatography; assay type: physicochemical; conditions: acetonitrile content in the mobile phase at the retention time
Description: Reverse-phase chromatography was employed to assess the hydrophobicity characteristics of the peptidomimetics. Hydrophobicity was quantified by determining the acetonitrile content in the mobile phase at the retention time of a peptidyl derivative (Table S2). The least hydrophobic compound (40% acetonitrile) was A-198, which aligns with the calculations of hydrophobicity by SwissADME and pkCSM (Table ). Next in the hydrophobicity sequence were A-197, A-220, A-219, A-174, and A-221, eluting with 42.5-43.9% of acetonitrile. Then there were followed by […], and A-179, with the acetonitrile percentage of 44.8-49.8. The compounds A-176, A-20, A-152, A-134, and A-210 needed over 50% of acetonitrile to be eluted from the column.

E. coli ATCC 25922 = assay: MIC/MBC broth microdilution, E. coli; assay type: cell-based, Escherichia coli
Description: as §1

MIC (S. aureus ATCC 43300; H2O): > 512 µg/mL
MIC (S. aureus ATCC 43300; water additive DMSO): > 512 µg/mL
MIC (S. aureus ATCC 43300; water additive EtOH): > 512 µg/mL
MIC (S. cohnii c.i.; H2O): > 512 µg/mL
MIC (S. cohnii c.i.; water additive DMSO): > 512 µg/mL
MIC (S. cohnii c.i.; water additive EtOH): > 512 µg/mL
MIC (P. vulgaris ATCC 6896; H2O): > 512 µg/mL
MIC (P. vulgaris ATCC 6896; water additive DMSO): > 512 µg/mL
MIC (P. vulgaris ATCC 6896; water additive EtOH): > 512 µg/mL
MIC ([4]; H2O): > 512 µg/mL
MIC ([4]; water additive DMSO): > 512 µg/mL
MIC ([4]; water additive EtOH): > 512 µg/mL
MIC (S. schleiferi c.i.; H2O): 256 µg/mL (≈ 506 µM)
MIC (S. schleiferi c.i.; water additive DMSO): 256 µg/mL (≈ 506 µM)
MIC (S. schleiferi c.i.; water additive EtOH): 256 µg/mL (≈ 506 µM)
MIC (P. aeruginosa ATCC 10145; H2O): > 512 µg/mL
MIC (P. aeruginosa ATCC 10145; water additive DMSO): > 512 µg/mL
MIC (P. aeruginosa ATCC 10145; water additive EtOH): > 512 µg/mL
MIC (E. faecalis c.i.; H2O): > 512 µg/mL
MIC (E. faecalis c.i.; water additive DMSO): > 512 µg/mL
MIC (E. faecalis c.i.; water additive EtOH): > 512 µg/mL
MIC (S. mutans c.i.; H2O): 256 µg/mL (≈ 506 µM)
MIC (S. pyogenes ATCC 19615; H2O): > 512 µg/mL
MIC (S. pyogenes ATCC 19615; water additive DMSO): > 512 µg/mL
MIC (S. pyogenes ATCC 19615; water additive EtOH): > 512 µg/mL
MIC (S. agalactiae ATCC 27956; H2O): > 512 µg/mL
MIC (S. agalactiae ATCC 27956; water additive DMSO): > 512 µg/mL
MIC (S. agalactiae ATCC 27956; water additive EtOH): > 512 µg/mL
% AcCN (acetonitrile required for elution from the column) [5]: 42.5%
MIC (E. coli ATCC 25922; H2O): > 512 µg/mL
MIC (E. coli ATCC 25922; water additive DMSO): > 512 µg/mL
MIC (E. coli ATCC 25922; water additive EtOH): > 512 µg/mL
Compound: CC(C)C[C@H](NC(=O)[C@H](CCCNC(=N)N)NC(=O)OCc1ccccc1)C(=O)N[C@H](CN)C(C)C [Compound A-197]
cytotoxicity (LDH), in words ([1]; 50-150 μg/mL): no cytotoxicity
concentration at which cytotoxic effect starts ([1]; LDH): > 150 µg/mL
effect on proliferation, in words [2]: did not exert any negative impact
effect on proliferation, in words [3]: did not exert any negative impact
cytotoxicity (LDH), in words (fibroblasts (46BR.1N); 50-150 μg/mL): no cytotoxicity
concentration at which cytotoxic effect starts (fibroblasts (46BR.1N); LDH): > 150 µg/mL
MBC (S. mutans c.i.; H2O): 512 µg/mL (≈ 1010 µM)
MBC (S. mutans c.i.; water additive EtOH): 256 µg/mL (≈ 506 µM)

From publication PMC12332667, “Role of Structural Modifications in Peptidomimetic Compounds as Potential Antimicrobial Agents against Staphylococcus aureus and Streptococcus pyogenes: Balancing Bioavailability, Safety, and Antimicrobial Activity” (ACS Omega, 2025)
